# Source: US20040214832A1, “Piperazine derivative renin inhibitors” (priority 2003, published 2004)
# Target: T1, human renin (Homo sapiens, UniProt P00797)
# T1 sequence (P00797 67-406): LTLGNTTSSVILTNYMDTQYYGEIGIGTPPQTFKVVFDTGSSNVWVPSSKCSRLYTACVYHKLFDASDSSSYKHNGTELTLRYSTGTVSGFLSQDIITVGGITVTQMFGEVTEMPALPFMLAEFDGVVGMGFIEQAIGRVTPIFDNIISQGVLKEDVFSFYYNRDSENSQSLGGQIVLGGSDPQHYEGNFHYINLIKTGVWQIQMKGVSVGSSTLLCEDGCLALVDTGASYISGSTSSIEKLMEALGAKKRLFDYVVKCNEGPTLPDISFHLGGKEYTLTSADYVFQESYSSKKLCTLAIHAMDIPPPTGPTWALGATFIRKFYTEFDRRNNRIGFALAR
# Assay: Determination of renin IC50 by tGFP FRET assay
# Assay type: biochemical
# Conditions: Human recombinant renin, tandem GFP substrate 650 nM, 60 min incubation with compound, pH 7.4, 11-point curve
# Excerpt: Determination of Renin IC50 by tGFP FRET Assay
# The tGFP FRET (fluorescence resonance energy transfer) assay utilizes a tandem GFP substrate (60 kDa, Discovery Technologies) containing nine amino acid recognition sequences for human renin flanked by two GFP proteins. The assay is used to determine the ability of a compound to act as an inhibitor of renin enzymatic activity by determination of that concentration of test compound that inhibits by 50% (IC50) the ability of renin to cleave the tandem GFP substrate. The IC50 values are determined over an 11-point curve at concentrations of 100 μM to 1 pM. Each compound concentration used to construct the curve was dependent on renin inhibitor potency. For example, subnanomolar IC50 values were determined over an 11-point curve at concentrations of 10 μM to 1 pM. All other IC50 values were determined over an 11-point curve at concentrations of 100 μM to 0.0065 μM. The concentrations were achieved by diluting a 9.1 nM stock of Human recombinant renin in the appropriate amount of buffer containing 50 mM HEPES, 1 mM EDTA, 1% PEG (8000 MW), 1 mM DTT, 0.1% BSA, pH 7.4 to achieve the final concentration of 50.4 μIU. The tGFP substrate stock solution of 43 μM was diluted with the appropriate amount of the above buffer to obtain the final concentration of 650 nM. In addition, 1 μl of the compound is diluted in dimethylsulfoxide (DMSO) to represent an […] log scale (5% final). The SR renin and compound are added to a 384 capacity plate by an automated robot (BIOMEK). The plate is incubated for 60 minutes; upon completion the tGFP substrate is added.
# The IC50 is determined by monitoring the increase in […] at 432/432 nm excitation, 530/475 nm emission with a cutoff at 515/455 nm, in a fluorometric plate reader.
row,IC50 [nM],Structure (SMILES)
1,66,"COc1ccccc1COCCCOc1ccc(N2C(=O)CNC[C@H]2COc2ccc3ccccc3c2)cc1 [Example 1, (6S)-1-{4-[3-(2-methoxybenzyloxy)-propoxy]-phenyl}-6-(naphthalen-2-yloxymethyl)-piperazin-2-one]"
2,181,"COc1ccccc1COCCCOc1ccc(N2C(=O)CNC[C@@H]2COCc2ccc(Cl)c(Cl)c2)cc1 [Example 2, (6R)-6-(3,4-dichlorobenzyloxymethyl)-1-{4-[3-(2-methoxybenzyloxy)-propoxy]-phenyl}-piperazin-2-one]"
3,225,"COc1ccccc1COCCCOc1ccc(N2C(=O)CNC[C@@H]2COCc2ccccc2F)cc1 [Example 3, (6R)-6-(2-fluorobenzyloxymethyl)-1-{4-[3-(2-methoxybenzyloxy)-propoxy]-phenyl}-piperazin-2-one]"
4,246,"COc1ccccc1COCCCOc1ccc(N2C(=O)CNC[C@@H]2COCc2ccc(F)c(F)c2)cc1 [Example 4, (6R)-6-(3,4-difluorobenzyloxymethyl)-1-{4-[3-(2-methoxybenzyloxy)-propoxy]-phenyl}-piperazin-2-one]"
5,295,"COc1ccccc1COCCCOc1ccc(N2C(=O)CNC[C@@H]2COCc2ccc(Cl)cc2)cc1 [Example 5, (6R)-6-(4-chlorobenzyloxymethyl)-1-{4-[3-(2-methoxybenzyloxy)-propoxy]-phenyl}-piperazin-2-one]"
6,325,"COc1ccccc1COCCCOc1ccc(N2C(=O)CNC[C@@H]2COCc2cccc(Cl)c2)cc1 [Example 6, (6R)-6-(3-chlorobenzyloxymethyl)-1-{4-[3-(2-methoxybenzyloxy)-propoxy]-phenyl}-piperazin-2-one]"
7,337,"COc1ccccc1COCCCOc1ccc(N2C(=O)CNC[C@@H]2COCc2ccc(C)cc2)cc1 [Example 7, (6R)-1-{4-[3-(2-methoxybenzyloxy)-propoxy]-phenyl}-6-(4-methylbenzyloxymethyl)-piperazin-2-one]"
8,454,"COc1ccccc1COCCCOc1ccc(N2C(=O)CNC[C@@H]2COCc2ccc(F)cc2)cc1 [Example 8, (6R)-6-(4-fluorobenzyloxymethyl)-1-{4-[3-(2-methoxybenzyloxy)-propoxy]-phenyl}-piperazin-2-one]"
9,612,"COc1cccc(COC[C@H]2CNCC(=O)N2c2ccc(OCCCOCc3ccccc3OC)cc2)c1 [Example 9, (6R)-6-(3-methoxybenzyloxymethyl)-1-{4-[3-(2-methoxybenzyloxy)-propoxy]-phenyl}-piperazin-2-one]"
10,880,"COc1ccccc1COCCCOc1ccc(N2C(=O)CNC[C@@H]2COCc2ccccc2OC)cc1 [Example 10, (6R)-6-(2-methoxybenzyloxymethyl)-1-{4-[3-(2-methoxybenzyloxy)-propoxy]-phenyl}-piperazin-2-one]"
11,1570,"COc1ccccc1COCCCOc1ccc(N2C(=O)CNC[C@@H]2COCc2cc(F)cc(F)c2)cc1 [Example 11, (6R)-6-(3,5-difluorobenzyloxymethyl)-1-{4-[3-(2-methoxybenzyloxy)-propoxy]-phenyl}-piperazin-2-one]"
12,3860,"COc1ccc(COC[C@H]2CNCC(=O)N2c2ccc(OCCCOCc3ccccc3OC)cc2)cc1 [Example 12, (6R)-6-(4-methoxybenzyloxymethyl)-1-{4-[3-(2-methoxybenzyloxy)-propoxy]-phenyl}-piperazin-2-one]"
13,68,"COc1ccccc1COCCCOc1ccc(N2C(=O)CNC[C@@H]2COCc2ccc(C(F)(F)F)cc2)cc1 [Example 13, (6R)-1-{4-[3-(2-methoxybenzyloxy)-propoxy]-phenyl}-6-(4-trifluoromethylbenzyloxymethyl)-piperazin-2-one]"
14,223,"COc1ccccc1COCCCOc1ccc(N2C(=O)CNC[C@@H]2COCc2ccccc2Cl)cc1 [Example 14, (6R)-6-(2-chlorobenzyloxymethyl)-1-{4-[3-(2-methoxybenzyloxy)-propoxy]-phenyl}-piperazin-2-one]"
15,372,"COc1ccccc1COCCCOc1ccc(N2C(=O)CNC[C@@H]2COCc2cccc(C)c2)cc1 [Example 15, (6R)-1-{4-[3-(2-methoxybenzyloxy)-propoxy]-phenyl}-6-(3-methylbenzyloxymethyl)-piperazin-2-one]"
16,> 1000,"COc1ccccc1COCCCOc1ccc(N2C(=O)CNC[C@@H]2COCc2c(F)cccc2F)cc1 [Example 16, (6R)-6-(2,6-difluorobenzyloxymethyl)-1-{4-[3-(2-methoxybenzyloxy)-propoxy]-phenyl}-piperazin-2-one]"
17,> 1000,"COc1ccccc1COCCCOc1ccc(N2C(=O)CNC[C@@H]2COCc2c(Cl)cccc2Cl)cc1 [Example 17, (6R)-6-(2,6-dichlorobenzyloxymethyl)-1-{4-[3-(2-methoxybenzyloxy)-propoxy]-phenyl}-piperazin-2-one]"
18,> 1000,"COc1ccccc1COCCCOc1ccc(N2C(=O)CNC[C@@H]2COCc2cccc(F)c2)cc1 [Example 18, (6R)-6-(3-fluorobenzyloxymethyl)-1-{4-[3-(2-methoxybenzyloxy)-propoxy]-phenyl}-piperazin-2-one]"
19,> 1000,"COc1ccccc1COCCCOc1ccc(N2C(=O)CNC[C@@H]2COCc2ccc(F)cc2C(F)(F)F)cc1 [Example 19, (6R)-6-(4-fluoro-2-trifluoromethylbenzyloxymethyl)-1-{4-[3-(2-methoxybenzyloxy)-propoxy]-phenyl}-piperazin-2-one]"
20,> 1000,"COc1ccccc1COCCCOc1ccc(N2C(=O)CNC[C@@H]2COCc2cc(Cl)cc(Cl)c2)cc1 [Example 20, (6R)-6-(3,5-dichlorobenzyloxymethyl)-1-{4-[3-(2-methoxybenzyloxy)-propoxy]-phenyl}-piperazin-2-one]"
21,> 1000,"COc1ccccc1COCCCOc1ccc(N2C(=O)CNC[C@@H]2COCc2ccccc2C)cc1 [Example 21, (6R)-1-{4-[3-(2-methoxybenzyloxy)-propoxy]-phenyl}-6-(2-methylbenzyloxymethyl)-piperazin-2-one]"
22,> 1000,"COc1ccccc1COCCCOc1ccc(N2C(=O)CNC[C@@H]2COCc2ccc(F)cc2Cl)cc1 [Example 22, (6R)-6-(2-chloro-4-fluorobenzyloxymethyl)-1-{4-[3-(2-methoxybenzyloxy)-propoxy]-phenyl}-piperazin-2-one]"
23,117,"COc1ccccc1COCCCOc1ccc(N2C(=O)CNC[C@@H]2COCc2cccnc2)cc1 [Example 23, (6R)-1-{4-[3-(2-methoxybenzyloxy)-propoxy]-phenyl}-6-(pyridin-3-ylmethoxymethyl)-piperazin-2-one]"
24,107,"COc1ccccc1COCCCOc1ccc(N2C(=O)CNC[C@@H]2COCc2ccc(Cl)c(C(F)(F)F)c2)cc1 [Example 24, (6R)-6-(4-chloro-3-trifluoromethylbenzyloxymethyl)-1-{4-[3-(2-methoxybenzyloxy)-propoxy]-phenyl}-piperazin-2-one]"
25,> 1000,"COc1ccccc1COCCCOc1ccc(N2C(=O)CNC[C@@H]2COCc2ccncc2)cc1 [Example 25, (6R)-1-{4-[3-(2-methoxybenzyloxy)-propoxy]-phenyl}-6-(pyridin-4-ylmethoxymethyl)-piperazin-2-one]"
26,132,"COc1ccccc1COCCCOc1ccc(N2C(=O)CNC[C@@H]2COCc2ccc(F)c(C(F)(F)F)c2)cc1 [Example 26, (6R)-6-(4-fluoro-3-trifluoromethylbenzyloxymethyl)-1-{4-[3-(2-methoxybenzyloxy)-propoxy]-phenyl}-piperazin-2-one]"
27,> 1000,"COc1ccccc1COCCCOc1ccc(N2C(=O)CNC[C@@H]2COCc2ccc(F)c(C)c2)cc1 [Example 27, (6R)-6-(4-fluoro-3-methylbenzyloxymethyl)-1-{4-[3-(2-methoxybenzyloxy)-propoxy]-phenyl}-piperazin-2-one]"
28,> 1000,"COc1ccccc1COCCCOc1ccc(N2C(=O)CNC[C@@H]2COCc2ccc(C#N)cc2)cc1 [Example 28, (6R)-4-(1-{4-[3-(2-methoxybenzyloxy)-propoxy]-phenyl}-6-oxopiperazin-2-ylmethoxymethyl)-benzonitrile]"
29,> 1000,"COc1ccccc1COCCCOc1ccc(N2C(=O)CNC[C@@H]2COCc2ccccn2)cc1 [Example 29, (6R)-1-{4-[3-(2-methoxybenzyloxy)-propoxy]-phenyl}-6-(pyridin-2-ylmethoxymethyl)-piperazin-2-one]"
